Entries after “also recorded” stand apart in the source; their conditions may differ.
Tests used:
COL17A1 = COL17A1 mRNA by RT-qPCR in NHEK culture; format: cell-based, human; details: DMP 10 nM, 24 hrs, normalized to GAPDH, vs vehicle
Protocol: (§1) Primary adult normal human epidermal keratinocytes (NHEK) were cultured in serum-free Keratinocyte Growth Medium 2 (KGM2) up to passage 6 and were seeded on glass slides at a density of 15-20×10^3 cells/cm^2. The next day, the KGM2 culture medium was changed and supplemented with hereafter indicated compounds, their combination or ethanol as vehicle control.
(§2) For application of the active to the medium (systemic application), 2,5-dimethylpyrazine (DMP), a TRPM5 activator, the DMP stock was dissolved at 37° C. at a final concentration of 10, 12.5 or 100 nM in KGM2. […] After 24 hours, NHEKs were washed in PBS and then either fixed in 4% formaldehyde for 10 minutes are room temperature (immunofluorescence labeling) or lysed in Buffer RLT containing 1% β-mercaptoethanol (for quantitative RT-qPCR).
(§3) For the assessment of Collagen 17A and Cytokeratin 15 specific mRNA transcripts (COL17A, KRT15) by quantitative RT-qPCR technology, RNA was isolated from cells lysed in Buffer RLT containing 1% β-mercaptoethanol using the RNeasy Mini Kit according to the manufacturer's instructions. RNA purity and concentrations were determined using the BioDrop. […] Real-time quantitative polymerase chain reaction (qRT-PCR) was run in triplicate using TaqMan™ Fast Advanced Master Mix and TaqMan Gene Expression Assays on the QuantStudio. […]

Cytokeratin 15 [1] = experiment: Cytokeratin 15 immunofluorescence, quantitative immunohistomorphometry in ex vivo human skin organ culture; format: cell-based; details: topical DMP 12.5 mM, 3 days, vs vehicle
Protocol: (§4) Samples of human abdominal, breast, temporal, and occipital skin were obtained with written patient consent and under ethical approval from healthy adult human subjects during elective plastic surgery performed for cosmetic reasons. Full-thickness human skin samples were prepared as 4-6 mm punches, placed on filter paper, and cultured at the air-liquid interphase under serum-free conditions in William's E medium supplemented only with penicillin-streptomycin, insulin, hydrocortisone and L-glutamine, as described previously. […]
(§5) Images were then obtained with a digital microscope (Keyence). Quantitative immunohistomorphometric analysis was performed by assessing the relative fluorescent or color intensity in standardized reference areas with ImageJ (NIH; Bethesda, MD, USA). […] Two skin punch biopsies were analyzed per experimental group unless indicated otherwise. […]
After consecutive rinses with PBS, samples were incubated with Alexa fluorophore-conjugated secondary antibodies diluted 1:500 in antibody diluent containing 2% normal goat serum for 45 minutes at room temperature. […] Image acquisition and quantitative immunohistomorphometric analysis were performed similar to as described above.

Collagen 17A [2] = experiment: Collagen 17A immunofluorescence in normal human epidermal keratinocyte (NHEK) culture; format: cell-based; details: 24 hrs; for expression of Collagen 17A in NHEKs: vs vehicle
Protocol: as §1
(§6) For application of the active to the medium (systemic application), 2,5-dimethylpyrazine (DMP), a TRPM5 activator, the DMP stock was dissolved at 37° C. at a final concentration of 10, 12.5 or 100 nM in KGM2. For triphenylphosphine oxide (TPPO), a TRPM5 inhibitor, a stock was prepared in ethanol and dissolved at 37° C. at a final concentration of 50 μM in KGM2. After 24 hours, NHEKs were washed in PBS and then either fixed in 4% formaldehyde for 10 minutes are room temperature (immunofluorescence labeling) or lysed in Buffer RLT containing 1% β-mercaptoethanol (for quantitative RT-qPCR).
(§7) For the detection of Collagen 17A in cell cultures, formalin-fixed NHEKs were permeabilized in PBS containing 0.05% Triton™ X-100 for 10 minutes, rinsed in PBS and then blocked in PBS containing 10% normal goat serum (NGS) for 20 minutes. Next, samples were incubated with an anti-Collagen 17A diluted 1:100 in antibody diluent overnight at 4° C. After consecutive rinses with PBS, samples were incubated with Alexa fluorophore-conjugated secondary antibodies diluted 1:500 in antibody diluent containing 2% NGS for 45 minutes at room temperature. […]
(§8) For the analysis on NHEKs, images were then obtained with a digital microscope (Keyence). Quantitative immunohistomorphometric analysis was performed by assessing the number of positive cells or the relative fluorescence intensity in standardized reference areas with ImageJ (NIH; Bethesda, MD, USA). Briefly, for the evaluation of Collagen 17A, the relative target-specific intensity was measured in 14-20 cells per microscopic field. For each parameter 14-20 microscopic fields were evaluated.

[3] = system: Phospho-Histone H3 Ser10 (pH3S10); experiment: Phospho-Histone H3 Ser10 (pH3S10) positive cell count in NHEK culture; format: cell-based, human; details: DMP 100 nM, 24 hrs, vs vehicle
Protocol: as §1
as §2, with “RT-qPCR). […]” for “RT-qPCR).”
as §8, with “pH3S10,” for “Collagen 17A,”, “number of cells with positive nuclear staining per field” for “relative target-specific intensity”, “counted and normalized to the total number of DAPI positive nuclei.” for “measured in 14-20 cells per microscopic field.”

Ki67 [4] = experiment: Ki67 immunofluorescence, quantitative immunohistomorphometry in ex vivo human skin organ culture; format: cell-based; details: 3 days
Protocol: as §4, §5
For the detection of Ki67, formalin-fixed human skin frozen sections were blocked with PBS containing 10% normal goat serum (NGS) for 30 minutes at room temperature and then incubated with an anti-Ki67 antibody diluted 1:800 in PBS containing 2% NGS overnight at 4° C. […] Image acquisition and quantitative immunohistomorphometric analysis were performed similar to as described above.

PGC1α = PGC1α immunofluorescence, quantitative immunohistomorphometry in ex vivo human skin organ culture; format: cell-based; details: systemic (medium) DMP 12.5 μM, 3 days, vs vehicle
Sirtuin-1 = Sirtuin-1 immunohistochemistry, quantitative immunohistomorphometry in ex vivo human skin organ culture; format: cell-based; details: systemic (medium) DMP 12.5 μM, 3 days, vs vehicle
Lamin B1 = Lamin B1 immunofluorescence, quantitative immunohistomorphometry in ex vivo human skin organ culture; format: cell-based; details: systemic (medium) DMP 12.5 μM, 3 days, vs vehicle
Collagen 17A [5] = experiment: Collagen 17A immunofluorescence, quantitative immunohistomorphometry in ex vivo human skin organ culture; format: cell-based; details: 3 days
Protocol: Samples of human abdominal, breast, temporal, and occipital skin were obtained with written patient consent and under ethical approval from healthy adult human subjects during elective plastic surgery performed for cosmetic reasons. Full-thickness human skin samples were prepared as 4-6 mm punches, placed on filter paper, and cultured at the air-liquid interphase under serum-free conditions in William's E medium supplemented only with penicillin-streptomycin, insulin, hydrocortisone and L-glutamine, as described previously.
For modelling the application of the actives directly to the skin surface (topical application) 2,5-dimethylpyrazine (DMP), a TRPM5 activator was dissolved at 37° C. at a final concentration of 12.5 mM in a 50% v/v solution of Isopropanol in PBS containing 1 g/mL of Polyethylene glycol 6000. […]
as §5

Cytokeratin 15 [6] = experiment: Cytokeratin 15 immunofluorescence in normal human epidermal keratinocyte (NHEK) culture; format: cell-based; details: 24 hrs; for expression of Cytokeratin 15 in NHEKs: vs vehicle
Protocol: as §1, §6
as §7, with “Cytokeratin 15” for “Collagen 17A”, “anti-Cytokeratin 15” for “anti-Collagen 17A”
as §8, with “Cytokeratin 15,” for “Collagen 17A,”

Ki67 [7] = experiment: Ki67 positive cell count (proliferation) in NHEK culture; format: cell-based, human; details: DMP 100 nM, 24 hrs, vs vehicle
Protocol: as §1
as §2, with “RT-qPCR). […]” for “RT-qPCR).”
as §8, with “Ki67,” for “Collagen 17A,”, “number of cells with positive nuclear staining per field” for “relative target-specific intensity”, “counted and normalized to the total number of DAPI positive nuclei.” for “measured in 14-20 cells per microscopic field.”

KRT15 = KRT15 mRNA by RT-qPCR in NHEK culture; format: cell-based, human; details: DMP 100 nM, 24 hrs, normalized to GAPDH, vs vehicle
Protocol: as §1, §2, §3

[8] = topical DMP 12.5 mM, vs vehicle
[9] = topical TPPO 1.5 mM with topical DMP 12.5 mM

SMILES: Cc1cnc(C)cn1 [DMP, 2,5-dimethylpyrazine]
- gene expression of COL17A1 (RT-qPCR) (COL17A1): markedly increases
- expression of Cytokeratin 15 in the basal layers of the epidermis (Cytokeratin 15 [1]): markedly increases
- expression of Collagen 17A in NHEKs (Collagen 17A [2]; DMP 12.5 nM): markedly increases
- expression of Collagen 17A in NHEKs (Collagen 17A [2]; DMP 100 nM): upregulate
- number of pH3S10 positive (dividing and proliferating) NHEKs [3]: markedly increases
- expression of Ki67 in the epidermis (Ki67 [4]; [8]): upregulate
- expression of PGC1α in the epidermis (PGC1α): markedly increases
- expression of Sirtuin 1 in the epidermis (Sirtuin-1): markedly increases
- expression of Lamin B1 in the epidermis (Lamin B1): markedly increases
- expression of Collagen 17A in the basal layers of the epidermis (Collagen 17A [5]; [8]): upregulate; also recorded: markedly increases
- expression of Cytokeratin 15 in NHEKs (Cytokeratin 15 [6]; DMP 12.5 nM): markedly increases
- expression of Cytokeratin 15 in NHEKs (Cytokeratin 15 [6]; DMP 100 nM): upregulate
- number of Ki67 positive (proliferating) NHEKs (Ki67 [7]): markedly increases
- gene expression of KRT15 (RT-qPCR) (KRT15): markedly increases

SMILES: O=P(c1ccccc1)(c1ccccc1)c1ccccc1 [TPPO, triphenylphosphine oxide, reference compound]
- effect on DMP-induced upregulation of Collagen 17A expression (Collagen 17A [2]; TPPO 50 μM with DMP 100 nM): prevented the effect
- effect on DMP-induced upregulation of Ki67 expression (Ki67 [4]; [9]): prevented the effect
- effect on DMP-induced upregulation of Collagen 17A expression (Collagen 17A [5]; [9]): prevented the effect
- effect on DMP-induced upregulation of Cytokeratin 15 expression (Cytokeratin 15 [6]; TPPO 50 μM with DMP 100 nM): prevented the effect
